Broadly, the EC50 is the concentration at which the effect is half-maximal.

This is an account of results in paper PMC3297713 (Journal of Medicinal Chemistry, 2012).

The target in experiment [1] is full-length human ERβ (Homo sapiens, UniProt Q92731). Nature of the experiment: 3X-ERE luciferase reporter gene assay in HepG2 cells, ERβ. The format is cell-based.
Experiment [2] concerns the target T1, full-length human ERα (Homo sapiens, UniProt P03372).
T1 sequence (P03372 1-595): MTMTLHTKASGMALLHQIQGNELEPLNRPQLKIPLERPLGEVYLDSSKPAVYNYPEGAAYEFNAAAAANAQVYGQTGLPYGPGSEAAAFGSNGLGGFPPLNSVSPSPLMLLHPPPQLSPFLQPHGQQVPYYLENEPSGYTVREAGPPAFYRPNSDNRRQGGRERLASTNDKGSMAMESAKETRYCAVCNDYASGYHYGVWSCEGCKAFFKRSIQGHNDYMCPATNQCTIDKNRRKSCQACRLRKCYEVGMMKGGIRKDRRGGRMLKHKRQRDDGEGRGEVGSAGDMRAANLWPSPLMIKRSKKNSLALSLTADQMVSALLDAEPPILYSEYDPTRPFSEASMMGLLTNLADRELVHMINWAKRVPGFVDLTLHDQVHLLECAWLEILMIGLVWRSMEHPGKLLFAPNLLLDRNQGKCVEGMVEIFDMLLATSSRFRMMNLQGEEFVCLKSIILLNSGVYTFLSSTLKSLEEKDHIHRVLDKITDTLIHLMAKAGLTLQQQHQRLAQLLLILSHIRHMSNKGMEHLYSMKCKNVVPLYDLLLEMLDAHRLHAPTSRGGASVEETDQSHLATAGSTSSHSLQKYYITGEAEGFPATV
Nature of the experiment: 3X-ERE luciferase reporter gene assay in HepG2 cells, ERα. The format is cell-based.

full-length human ERβ, sequence (Q92731 whole entry): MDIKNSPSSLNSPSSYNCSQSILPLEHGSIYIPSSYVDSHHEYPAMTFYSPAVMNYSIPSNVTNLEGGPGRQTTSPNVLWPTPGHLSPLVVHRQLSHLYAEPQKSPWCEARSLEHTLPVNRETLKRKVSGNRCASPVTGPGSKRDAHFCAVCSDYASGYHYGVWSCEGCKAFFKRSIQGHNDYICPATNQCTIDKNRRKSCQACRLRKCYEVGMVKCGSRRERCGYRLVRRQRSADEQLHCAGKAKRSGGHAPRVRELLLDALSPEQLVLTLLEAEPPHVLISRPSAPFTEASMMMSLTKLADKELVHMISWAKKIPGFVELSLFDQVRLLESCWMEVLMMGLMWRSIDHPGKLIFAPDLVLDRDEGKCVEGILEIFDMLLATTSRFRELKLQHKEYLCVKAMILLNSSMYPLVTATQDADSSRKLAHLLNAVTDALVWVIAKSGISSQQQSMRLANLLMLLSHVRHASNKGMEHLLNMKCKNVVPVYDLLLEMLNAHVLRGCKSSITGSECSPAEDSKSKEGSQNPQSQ

With `O=S(=O)(Oc1ccccc1)[C@H]1C[C@H]2C(c3ccc(O)cc3)=C(c3ccc(O)cc3)[C@@H]1[S+]2[O-]` (relative stereo) [Compound 10a], in experiment [1], the EC50 is over 10 µM and the “ERβ agonist activity (in words)” value is on record as “do not activate ERβ”. Moreover, the “ERα functional profile (in words)” value in experiment [2] is listed as “lacks ERα antagonist activity”.
Regarding `COc1ccc(OS(=O)(=O)[C@H]2C[C@H]3C(c4ccc(O)cc4)=C(c4ccc(O)cc4)[C@@H]2[S+]3[O-])cc1` (relative stereo) [Compound 10b], the EC50 in experiment [1] and in experiment [2] was over 10 µM each time.
For `O=S(=O)(Oc1ccc(O)cc1)[C@H]1C[C@H]2C(c3ccc(O)cc3)=C(c3ccc(O)cc3)[C@@H]1[S+]2[O-]` (relative stereo) [Compound 10c], the half-maximal effective concentration (EC50) in experiment [1] is over 10 µM.
Turning to `CCOC(=O)[C@@H]1[C@H](C(=O)OCC)[C@@H]2C(c3ccc(O)cc3)=C(c3ccc(O)cc3)[C@H]1[S+]2[O-]` (relative stereo) [Compound 10e], the EC50 in experiment [1] and in experiment [2] was over 10 µM throughout.
Regarding `COc1ccc(OS(=O)(=O)[C@H]2C[C@H]3C(c4ccc(O)cc4C)=C(c4ccc(O)cc4C)[C@@H]2[S+]3[O-])cc1` (relative stereo) [Compound 11b], the concentration for a half-maximal effect (EC50) in experiment [1] was over 10 µM.
In experiment [1], `Cc1cc(O)ccc1C1=C(c2ccc(O)cc2C)[C@H]2[C@@H](S(=O)(=O)Oc3ccccc3F)C[C@@H]1[S+]2[O-]` (relative stereo) [Compound 11c] returned a half-maximal effective concentration (EC50) of over 10 µM.
For `Cc1cc(O)ccc1C1=C(c2ccc(O)cc2C)[C@H]2[C@@H](S(=O)(=O)Oc3ccccc3Br)C[C@@H]1[S+]2[O-]` (relative stereo) [Compound 11e], the EC50 in experiment [1] is over 10 µM.
`Cc1cc(O)ccc1C1=C(c2ccc(O)cc2C)[C@H]2[C@@H](S(=O)(=O)Oc3ccc(F)cc3)C[C@@H]1[S+]2[O-]` (relative stereo) [Compound 11f] yielded an EC50 in experiment [1] of over 10 µM.
In turn, `Cc1cc(O)ccc1C1=C(c2ccc(O)cc2C)[C@H]2[C@@H](S(=O)(=O)Oc3ccc(Cl)cc3)C[C@@H]1[S+]2[O-]` (relative stereo) [Compound 11g] yielded a concentration giving a half-maximal response (EC50) in experiment [1] of over 10 µM.
Same read-out and setting: the value for `Cc1cc(O)ccc1C1=C(c2ccc(O)cc2C)[C@H]2[C@@H](S(=O)(=O)Oc3cccc4ccccc34)C[C@@H]1[S+]2[O-]` (relative stereo) [Compound 11j] was over 10 µM; that for `Cc1cc(C2=C(c3ccc(O)c(C)c3)[C@H]3[C@@H](S(=O)(=O)Oc4ccccc4)C[C@@H]2[S+]3[O-])ccc1O` (relative stereo) [Compound 12a] was over 10 µM; that for `COc1ccc(OS(=O)(=O)[C@H]2C[C@H]3C(c4ccc(O)c(C)c4)=C(c4ccc(O)c(C)c4)[C@@H]2[S+]3[O-])cc1` (relative stereo) [Compound 12b] was over 10 µM.
Same read-out and setting: the value for `Cc1cc(C2=C(c3ccc(O)c(C)c3)[C@H]3[C@@H](S(=O)(=O)Oc4ccccc4F)C[C@@H]2[S+]3[O-])ccc1O` (relative stereo) [Compound 12c] was over 10 µM.
Consider `Cc1cc(C2=C(c3ccc(O)c(C)c3)[C@H]3[C@@H](S(=O)(=O)Oc4ccccc4Cl)C[C@@H]2[S+]3[O-])ccc1O` (relative stereo) [Compound 12d], for which the concentration giving a half-maximal response (EC50) in experiment [1] was over 10 µM.
`Cc1cc(C2=C(c3ccc(O)c(C)c3)[C@H]3[C@@H](S(=O)(=O)Oc4ccccc4Br)C[C@@H]2[S+]3[O-])ccc1O` (relative stereo) [Compound 12e] displayed an EC50 in experiment [1] of over 10 µM.
Same read-out and setting: the value for `Cc1cc(C2=C(c3ccc(O)c(C)c3)[C@H]3[C@@H](S(=O)(=O)Oc4cccc5ccccc45)C[C@@H]2[S+]3[O-])ccc1O` (relative stereo) [Compound 12f] was over 10 µM.
Turning to `CCOC(=O)[C@@H]1[C@H](C(=O)OCC)[C@@H]2C(c3ccc(O)c(C)c3)=C(c3ccc(O)c(C)c3)[C@H]1[S+]2[O-]` (relative stereo) [Compound 12i], the EC50 in experiment [1] and in experiment [2] was over 10 µM throughout.
For `O=S(=O)(Oc1ccc(O)cc1)[C@H]1C[C@H]2C(c3ccccc3)=C(c3ccccc3)[C@@H]1[S+]2[O-]` (relative stereo) [Compound 13], the concentration for a half-maximal effect (EC50) in experiment [1] and in experiment [2] was over 10 µM in each case.
`Cc1ccc(C2=C(c3ccc(C)cc3)[C@H]3[C@@H](S(=O)(=O)Oc4ccc(O)cc4)C[C@@H]2[S+]3[O-])cc1` (relative stereo) [Compound 14] yielded an EC50 in experiment [1] of over 10 µM.
